Experimental data as given in ChEMBL document CHEMBL1201862, “PubChem BioAssay data set” (2004).
Values joined by “and” are separate entries in the source; they are usually repeats but may differ in a detail not shown here. Identical values can stand only once. Active and inactive are the calls of the source.

Tests used:
Leucine aminopeptidase = biological target: T1, Leucine aminopeptidase (Plasmodium falciparum 3D7, UniProt Q8IL11); assay: P. falciparum M17LAP inhibitors, primary screen, biochemical, fluorogenic H-Leu-NHMec substrate, 1536-well (AID 1619); format: functional
T1 sequence (Q8IL11 whole entry): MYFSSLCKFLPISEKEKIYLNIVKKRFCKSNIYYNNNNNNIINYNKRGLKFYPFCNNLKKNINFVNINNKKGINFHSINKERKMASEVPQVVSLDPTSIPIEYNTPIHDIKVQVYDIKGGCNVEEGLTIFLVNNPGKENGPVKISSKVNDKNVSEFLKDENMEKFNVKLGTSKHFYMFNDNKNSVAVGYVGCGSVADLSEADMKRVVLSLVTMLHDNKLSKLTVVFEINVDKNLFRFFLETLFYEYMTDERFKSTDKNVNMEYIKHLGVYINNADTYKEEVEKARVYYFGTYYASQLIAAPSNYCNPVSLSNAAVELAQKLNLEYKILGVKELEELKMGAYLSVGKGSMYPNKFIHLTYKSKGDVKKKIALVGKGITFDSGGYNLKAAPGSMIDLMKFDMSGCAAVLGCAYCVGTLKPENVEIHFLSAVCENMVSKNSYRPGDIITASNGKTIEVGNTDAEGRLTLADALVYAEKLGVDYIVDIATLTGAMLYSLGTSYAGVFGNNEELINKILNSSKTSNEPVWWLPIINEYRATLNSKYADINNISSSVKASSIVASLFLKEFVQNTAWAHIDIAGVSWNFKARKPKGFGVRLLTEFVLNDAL

Protein RecA = biological target: T2, Protein RecA (Mycobacterium tuberculosis, UniProt P9WHJ3); assay: Fluorescence Cell-Free Homogeneous Dose Retest to Identify Inhibitors of RecA-Intein Splicing Activity. [Related pubchem assays (depositor defined):AID2097, AID2223, AID489010, AID492950]; format: functional
T2 sequence (P9WHJ3 whole entry): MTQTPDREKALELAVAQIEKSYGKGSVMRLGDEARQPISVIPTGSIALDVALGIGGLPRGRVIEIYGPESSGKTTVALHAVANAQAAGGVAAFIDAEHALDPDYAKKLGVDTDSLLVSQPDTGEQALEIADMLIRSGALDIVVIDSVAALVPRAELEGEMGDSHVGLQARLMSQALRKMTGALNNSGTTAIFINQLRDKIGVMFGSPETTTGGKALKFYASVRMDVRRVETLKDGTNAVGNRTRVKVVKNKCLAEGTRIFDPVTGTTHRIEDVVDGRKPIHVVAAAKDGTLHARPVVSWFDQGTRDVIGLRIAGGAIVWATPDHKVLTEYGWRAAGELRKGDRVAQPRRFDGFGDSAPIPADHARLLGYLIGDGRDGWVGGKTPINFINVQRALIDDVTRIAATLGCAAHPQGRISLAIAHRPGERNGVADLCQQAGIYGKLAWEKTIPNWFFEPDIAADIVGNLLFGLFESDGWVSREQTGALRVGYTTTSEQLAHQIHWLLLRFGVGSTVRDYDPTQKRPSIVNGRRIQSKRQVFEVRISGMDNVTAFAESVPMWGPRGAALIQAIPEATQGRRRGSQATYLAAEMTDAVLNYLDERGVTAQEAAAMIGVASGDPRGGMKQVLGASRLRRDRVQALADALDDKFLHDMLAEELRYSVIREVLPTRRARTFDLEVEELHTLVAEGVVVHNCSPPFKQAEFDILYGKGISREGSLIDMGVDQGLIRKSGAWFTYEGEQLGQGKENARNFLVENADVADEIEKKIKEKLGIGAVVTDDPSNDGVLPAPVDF

[1] = biological target: T3, Replicative DNA helicase DnaB (Mycobacterium tuberculosis, UniProt P9WMR3); assay: DnaB intein splicing inhibitors, dose response, biochemical, cell-free fluorescence (AID 449749); format: functional
T3 sequence (P9WMR3 whole entry): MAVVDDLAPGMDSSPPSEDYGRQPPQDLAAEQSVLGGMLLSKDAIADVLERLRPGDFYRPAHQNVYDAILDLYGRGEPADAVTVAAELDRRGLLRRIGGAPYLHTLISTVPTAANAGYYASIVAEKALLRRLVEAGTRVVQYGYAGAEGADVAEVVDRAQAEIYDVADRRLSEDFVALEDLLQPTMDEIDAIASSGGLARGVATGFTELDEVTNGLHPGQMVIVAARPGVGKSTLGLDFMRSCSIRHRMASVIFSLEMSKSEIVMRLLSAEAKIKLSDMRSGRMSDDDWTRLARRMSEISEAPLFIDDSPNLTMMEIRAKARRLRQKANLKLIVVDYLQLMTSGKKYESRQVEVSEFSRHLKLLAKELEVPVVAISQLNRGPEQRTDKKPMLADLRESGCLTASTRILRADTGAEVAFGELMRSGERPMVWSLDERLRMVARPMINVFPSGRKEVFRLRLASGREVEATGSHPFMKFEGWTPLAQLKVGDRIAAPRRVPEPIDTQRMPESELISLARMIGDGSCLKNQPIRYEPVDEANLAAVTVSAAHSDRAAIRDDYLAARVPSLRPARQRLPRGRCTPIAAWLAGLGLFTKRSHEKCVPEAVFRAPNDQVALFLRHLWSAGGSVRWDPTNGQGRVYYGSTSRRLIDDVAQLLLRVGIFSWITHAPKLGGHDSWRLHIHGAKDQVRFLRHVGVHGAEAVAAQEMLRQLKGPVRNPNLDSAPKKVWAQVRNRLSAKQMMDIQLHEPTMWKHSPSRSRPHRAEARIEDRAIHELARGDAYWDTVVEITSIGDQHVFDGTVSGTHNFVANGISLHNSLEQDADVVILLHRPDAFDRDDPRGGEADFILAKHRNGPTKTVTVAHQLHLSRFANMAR

Cytochrome P450 3A4 = Cytochrome P450 3A4 (Homo sapiens, UniProt P08684); conditions: Potency;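 further: confirmatory qHTS run detecting inhibitors and substrates of CYP3A4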
[2] = viability loss of HPDE-C7K cells – cell-based, fluorescence, HTS, primary screen (AID 431); format: functional; conditions: Homo sapiens
[3] = HPDE-C7 pancreatic duct cell viability loss – fluorescence, HTS (AID 430); format: functional, cell-based; conditions: Homo sapiens
[4] = microbe, parasite or virus in culture; format: functional; conditions: Mycobacterium tuberculosis
[5] = viability of HCT116 lacking mutant beta-catenin – cell-based, human colon tumor, dose response (AID 1045); format: functional;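 further: HCT116 colon tumor cells with beta catenin knocked out; cells exposed to compound for 60 hours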
Prothrombin = Prothrombin (Homo sapiens, UniProt P00734); assay: Thrombin 1536 HTS Dose Response Confirmation. [Related pubchem assays: 1046 (Thrombin 1536 HTS; hits were confirmed in this assay)]; format: functional
[6] = viability of PTEN-deleted HCT116 cells – cell-based, HCT116 PTEN knockout, dose response (AID 1047); format: functional;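 further: HCT116 colon tumor cells with PTEN knocked out; cells exposed to compound for 60 hours before readout; potency for loss of cell viability measured by luminescence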
[7] = biological target: T4, Heat shock factor protein 1 (Mus musculus, UniProt P38532); assay: enhancement of HSF1-driven luciferase signal – cell-based, NIH3T3, luminescence, dose retest, confirmation (AID 435004); format: functional;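 further: stress induced by proteasome inhibitor MG132 added 30 min after compound; luciferase reporter driven by HSF1 response element in NIH3T3 cells; actives raise luminescence as potentiators of the MG132 stress response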
T4 sequence (P38532 whole entry): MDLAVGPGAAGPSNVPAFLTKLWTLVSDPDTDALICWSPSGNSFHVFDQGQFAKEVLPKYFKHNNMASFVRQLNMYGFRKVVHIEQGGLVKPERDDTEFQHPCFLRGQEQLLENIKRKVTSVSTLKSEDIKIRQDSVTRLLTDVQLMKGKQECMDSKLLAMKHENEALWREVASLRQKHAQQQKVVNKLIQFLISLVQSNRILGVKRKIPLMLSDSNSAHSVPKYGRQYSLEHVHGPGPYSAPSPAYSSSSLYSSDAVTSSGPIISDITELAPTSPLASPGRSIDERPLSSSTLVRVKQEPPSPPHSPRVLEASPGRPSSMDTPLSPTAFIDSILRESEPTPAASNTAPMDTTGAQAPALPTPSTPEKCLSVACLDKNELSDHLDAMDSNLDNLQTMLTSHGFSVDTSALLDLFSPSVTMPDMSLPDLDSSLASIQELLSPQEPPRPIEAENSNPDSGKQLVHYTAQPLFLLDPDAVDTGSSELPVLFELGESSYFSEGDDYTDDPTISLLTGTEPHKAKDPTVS

[8] = biological target: Induced myeloid leukemia cell differentiation protein Mcl-1 (Homo sapiens, UniProt Q07820); format: functional
[9] = Luminescence Cell-Based Dose Retest to Confirm Inhibitors of Cancer Stem Cells. [Related pubchem assays (depositor defined):AID2717, AID2721]; format: functional; conditions: Homo sapiens
Streptococcus = assay: GAS UMAA2166 growth inhibition – luminescence, BacTiterGlo, counter-screen for streptokinase expression inhibitor project, dose response (AID 1915); format: functional, organism-based;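 further: potency for reduction of bacterial viability or growth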
[10] = test system: Streptococcus sp. 'group A'; assay: Streptococcus pyogenes SK(-)GAS viability under kanamycin – luminescence, BacTiterGlo, confirmation, counter-screen for streptokinase expression inhibitor project, dose response (AID 1900); format: functional, organism-based
[11] = reduction of Shn3 3'UTR-driven luciferase in osteoblasts – cell-based, Clone20 osteoblasts, firefly luciferase, cherry-picked, dose response (AID 624132); format: functional;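 further: firefly luciferase luminescence from reporter carrying the Shn3 3'UTR in osteoblasts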
[12] = loss of viability in HepG2 cells – cell-based, CellTiter-Glo, cherry-picked, cytotoxicity control for Shn3 inhibitor project, dose response (AID 624134); format: functional
[13] = non-specific 3'UTR reporter inhibition in Clone20-Shn3RL – cell-based, Renilla luciferase, cherry-picked, counter-screen for Shn3 inhibitor project, dose response (AID 624133); format: functional
[14] = NIH3T3 cell viability loss – ATP luminescence, mouse fibroblasts, counter-screen, dose response (AID 2010); format: functional, cell-based;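 further: cells exposed to compound for about 90 hours before reading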
[15] = Trypanosoma cruzi growth suppression in host cells – NIH3T3 host cells, beta-gal luminescence, confirmation (AID 2044); format: functional, cell-based;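 further: intracellular parasites grown in NIH/3T3 mouse fibroblasts as host cells; luminescent beta-galactosidase reporter signal from transgenic T. cruzi replicating inside host cells; inhibitors lower the luminescence signal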
[16] = fluconazole-exposed Candida albicans growth modulators – fluorescence, retest, confirmation (AID 2467); format: functional, cell-based
[17] = NIH-3T3 fibroblast cytotoxicity, dose response, cytotoxicity control, cell-based, fluorescence, Alamar Blue, secondary assay (AID 2327); format: functional;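 further: NIH-3T3 mouse fibroblasts cultured with fluconazole at 8 µg/mL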

Cytochrome P450 3A4, sequence (P08684 whole entry): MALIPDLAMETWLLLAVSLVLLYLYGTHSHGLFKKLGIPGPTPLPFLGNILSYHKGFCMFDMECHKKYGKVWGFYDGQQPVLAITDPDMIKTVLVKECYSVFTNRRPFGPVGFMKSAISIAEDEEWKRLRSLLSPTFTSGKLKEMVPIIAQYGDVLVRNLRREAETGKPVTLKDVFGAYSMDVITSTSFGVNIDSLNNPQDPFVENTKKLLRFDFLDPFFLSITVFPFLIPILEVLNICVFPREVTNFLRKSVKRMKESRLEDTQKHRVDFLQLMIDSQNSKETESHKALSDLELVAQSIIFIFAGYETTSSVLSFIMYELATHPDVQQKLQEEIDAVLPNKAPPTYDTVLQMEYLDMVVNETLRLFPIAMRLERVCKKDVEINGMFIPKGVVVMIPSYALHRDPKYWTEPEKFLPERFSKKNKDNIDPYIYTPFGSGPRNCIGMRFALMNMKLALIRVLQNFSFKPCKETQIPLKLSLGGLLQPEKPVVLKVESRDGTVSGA
Induced myeloid leukemia cell differentiation protein Mcl-1, sequence (Q07820 whole entry): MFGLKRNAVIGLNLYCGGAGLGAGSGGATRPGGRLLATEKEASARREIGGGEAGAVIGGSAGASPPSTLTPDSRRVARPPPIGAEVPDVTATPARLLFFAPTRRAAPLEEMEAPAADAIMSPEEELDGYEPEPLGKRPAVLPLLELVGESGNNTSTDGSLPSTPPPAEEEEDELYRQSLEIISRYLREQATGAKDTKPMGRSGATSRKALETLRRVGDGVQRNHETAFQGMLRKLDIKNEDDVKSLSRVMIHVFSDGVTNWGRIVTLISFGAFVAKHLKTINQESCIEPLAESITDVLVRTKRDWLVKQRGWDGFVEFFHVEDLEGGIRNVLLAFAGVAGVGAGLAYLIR

## CCc1nnc(NS(=O)(=O)c2ccc(/N=C/c3c(C)[nH]n(-c4cccc(Cl)c4)c3=O)cc2)s1
Leucine aminopeptidase
  IC50: 11.3 µM (active)

## COc1ccc(OC)c(S(=O)(=O)n2nnc3cc(Cl)ccc32)c1
Leucine aminopeptidase
  IC50: 103 µM (active)

## Cc1ccc(-c2[nH]nc3c2C(c2ccsc2)C(C#N)=C(N)O3)cc1 (stereo not given)
Protein RecA
  EC50: 1.2 µM (active)
Leucine aminopeptidase
  IC50: 11.3 µM (active)
[1]
  AC50: 3.26 µM (active)

## CCCn1c(-c2ccc(F)cc2)nc2c(NCCCN(CC)CC)nc(C)nc21
Cytochrome P450 3A4
  AC50: 20 µM (inconclusive)

## O=C1C=C(NCc2ccc(Cl)c(Cl)c2)CC1
[2]
  EC50: > 20 µM (not active)
[3]
  EC50: > 20 µM (not active)

## C=C(CCC(=O)c1ccccc1)C(=O)c1ccccc1
[4]
  CC50: 17.7 µM (active)
[5]
  EC50: 8.26 µM (active)
Prothrombin
  IC50: > 50 µM (not active)
[6]
  EC50: 9.9 µM (active)
[7]
  EC50: 15 µM (active)

## O=C(N/N=C/c1ccccc1[N+](=O)[O-])c1ccc2[nH]cnc2c1
Prothrombin
  IC50: 2.34 µM (active)

## NC(=O)/N=N/C(N)=O [E927A]
Cytochrome P450 3A4
  AC50: 31.6 µM (inconclusive)

## Cn1c(N)c(C(=O)COC(=O)c2cc(C3CC3)nc3ccccc23)c(=O)n(C)c1=O
Cytochrome P450 3A4
  AC50: 39.8 µM (inconclusive)

## O=C(/C=C/c1ccccc1)c1ccc(NC2=NCCCS2)cc1
[8]
  IC50: 8.3 µM (active)

## O=C(Nc1ccc(Cc2ccncc2)cc1)c1ccco1
Prothrombin
  IC50: > 50 µM (not active)

## CCCOC(=O)c1ccc(Oc2c(C)n[nH]c2-c2ccc(OCC)cc2O)cc1
[2]
  EC50: 7.31 µM (active)
[9]
  AC50: 3.66 µM (active)
Streptococcus
  EC50: > 150 µM (not active)
[10]
  EC50: 11.1 µM (active)
[3]
  EC50: 11.9 µM (active)

## Cc1ccc(C(=O)COC(=O)CNC(=O)c2ccc(N3C(=O)c4ccccc4C3=O)cc2)cc1C
[8]
  IC50: 2.13 µM (not active)

## COCCCNC(=O)/C(=C\c1cccn1C)NC(=O)c1cccs1
Prothrombin
  IC50: > 50 µM (inconclusive)

## Cc1cc(NS(=O)(=O)c2ccc(NC(=O)CSc3nnc(-c4ccco4)n3N)cc2)nc(C)n1
Prothrombin
  IC50: > 50 µM (not active)

## CC(=O)N1CC=CC1(C)C(=O)NCC1CC1 (stereo not given)
Cytochrome P450 3A4
  AC50: 31.6 µM (inconclusive)

## O=C(c1cc2ccccc2[nH]1)N1CCOCC1
Prothrombin
  IC50: > 50 µM (not active)

## Cc1cc(C)n(S(=O)(=O)/C=C/c2ccccc2)n1
[2]
  EC50: 9.65 µM (active)
[7]
  EC50: 12.1 µM (active)
[3]
  EC50: 9.1 µM (active)

## Cc1cccc(N2CCN(C(=O)CSCc3c(C)noc3C)CC2)c1C
[11]
  AC50: 2.41 µM (active)
[12]
  AC50: 36.3 µM (active)
[7]
  EC50: 243 µM (active)
[13]
  AC50: 3.48 µM (active)

## O=C(O)C1CC=CCC1C(=O)Nc1ccccc1 (stereo not given)
Leucine aminopeptidase
  IC50: 29 µM (active)

## COc1ccccc1C(=O)N=C(NC(=O)c1ccccc1OC)Nc1nc2ccccc2o1
[2]
  EC50: 5.05 µM (active)
[4]
  CC50: 14 µM (active)
[14]
  EC50: > 60 µM (not active)
[15]
  EC50: 1.38 µM (active)
[3]
  EC50: 4.28 µM (active)

## Cc1ccc(C2C3CSCC=C3C(C#N)=C(N)C2(C#N)C#N)cc1 (stereo not given)
[2]
  EC50: > 20 µM (not active)
[16]
  EC50: > 38 µM (not active)
[3]
  EC50: 17.4 µM (active)
[17]
  EC50: > 160 µM (inactive)

## CC(=O)OC[C@@]1(O)C[C@]23CCC4c5ccoc5CC[C@@]4(C)C2CCC1C3 (stereo not given in full)
Cytochrome P450 3A4
  AC50: 31.6 µM (inconclusive)

## O=C(NC1CCCCC1)C1CCN(c2nnnn2-c2ccccc2)CC1
Prothrombin
  IC50: > 50 µM (not active)

## O=C(CSc1nnc(O)nc1O)N/N=C/c1ccccc1
Leucine aminopeptidase
  IC50: 21.1 µM (active)

## OCC1OC(C#Cc2ccccc2)C=CC1O (stereo not given)
Cytochrome P450 3A4
  AC50: 3.16 µM (inconclusive) and 6.31 µM (inconclusive) (2×)

## COc1ccc(NC(=O)C(CC(=O)O)Cc2ccccc2)cc1 (stereo not given)
Leucine aminopeptidase
  IC50: 28.1 µM (active)
